Patent US20060051291A1, “Synthesis of radiolabeled sugar metal complexes” (priority 2004, published 2006)

Format: physicochemical
Description: Minor species are also detected by UV/visible spectroscopy in the HPLC of the complex and become more significant over time. The ^13C{^1H} NMR spectrum (d6-DMSO) of the complex was fully assigned for the α-anomer, and partially assigned for the β-anomer (as reflected above in TABLE 1).

Tricarbonyl (N-(2′-Hydroxybenzyl)-2-amino-2-deoxy-D-glucose) rhenium(I) [[(L^2)Re(CO)3]]
stability in solution: become visibly brown
